From patent publication US12492184B2, “Heteroaryl compounds, preparation methods and uses thereof” (InventisBio Co., Ltd., priority 2020, dated 2025)

Tested on: HEK-Blue IL23 Reporter
Test: HEK-Blue IL-23 STAT3 Reporter Assay
Assay type: cell-based, human
Details: SEAP read with QUANTI-Blue at OD655
Procedure: HEK-Blue IL23 cells (InvivoGen catalog #HKB-IL23) are designed for the detection of bioactive IL-23 by monitoring the activation of the STAT3 pathway. They were generated by stably introducing the genes for the human IL-23 receptor, STAT3, and the SEAP (secreted embryonic alkaline phosphatase) reporter gene into human HEK293 cell line.
Briefly, around 50,000 cells in DMEM medium supplemented with 10% heat inactivated FBS (˜180 ul) were seeded into each well and incubate for 48 hours at 37° C. with 5% CO2 in air. On day 3, one microliter of compound and 20 ul IL-23 were transferred to the assay plate respectively. The plate was left in the 37° C. incubator overnight. Two microliter of cell supernatant was transferred to a 384-well plate, and 18 ul of resuspended QUANTI-Blue solution was added to each well. SLAP levels were determined using Tecan Spark at OD655.
Cells with no IL23 added were used as Low control. Cells stimulated with IL23 were used as High control. Inhibition rate was calculated with the formula of % inhibition=100*(High control−Treated Well)/(High Control−Low control). IL-23 reporter assay inhibition IC50 was calculated with the equation of Y=Bottom+(Top-Bottom)/(1+10^((Log IC50−X)*HillSlope)).

[1] = Homo sapiens, HEK-Blue IL-23, HEK-Blue IL23 cells stimulated with IL-23 overnight
[2] = HEK-Blue IL23 cells stimulated with IL-23 overnight

| SMILES | IC50 [1] | IC50 [2] |
| --- | --- | --- |
| [2H]C([2H])([2H])NC(=O)c1cnc(NC(=O)[C@H]2CC23CC3)cc1Nc1ncc(Cl)cc1S(C)(=O)=O [Compound 119] | 6.2 nM |  |
| [2H]C([2H])([2H])NC(=O)c1nnc(NC(=O)[C@H]2CC23CC3)cc1Nc1ncc(C(C)(C)O)cc1S(C)(=O)=O [Compound 120] | 14.7 nM |  |
| [2H]C([2H])([2H])NC(=O)c1nnc(NC(=O)[C@H]2CC23CC3)cc1Nc1ncc(N2CCOC[C@H]2C)cc1S(C)(=O)=O [Compound 121] | 1.2 nM |  |
| [2H]C([2H])([2H])NC(=O)c1nnc(NC(=O)[C@H]2CC23CC3)cc1Nc1ncc(N2CCOC[C@@H]2C)cc1S(C)(=O)=O [Compound 122] | 16.1 nM |  |
| [2H]C([2H])([2H])NC(=O)c1nnc(NC(=O)[C@H]2CC23CC3)cc1Nc1nc(C2CC2)sc1S(C)(=O)=O [Compound 123] | 19.8 nM |  |
| [2H]C([2H])([2H])NC(=O)c1nnc(NC(=O)[C@H]2CC23CC3)cc1Nc1ncc(N2CC(F)(F)C2)cc1S(C)(=O)=O [Compound 124] | 1.9 nM |  |
| [2H]C([2H])([2H])NC(=O)c1nnc(NC(=O)[C@H]2CC23CC3)cc1Nc1nc(C)c(F)cc1S(C)(=O)=O [Compound 125] | 7.3 nM |  |
| [2H]C([2H])([2H])NC(=O)c1nnc(NC(=O)[C@H]2CC23CC3)cc1Nc1ncc(C#N)cc1S(C)(=O)=O [Compound 126] | 17.4 nM |  |
| [2H]C([2H])([2H])NC(=O)c1nnc(NC(=O)[C@H]2CC23CC3)cc1Nc1nc(C)sc1S(C)(=O)=O [Compound 127] | 6.4 nM |  |
| [2H]C([2H])([2H])NC(=O)c1nnc(NC(=O)[C@H]2CC23CC3)cc1Nc1ncc(N2CC(F)C2)cc1S(C)(=O)=O [Compound 128] | 1 nM |  |
| [2H]C([2H])([2H])NC(=O)c1nnc(NC(=O)[C@H]2CC23CC3)cc1Nc1nccc2c1S(C)(=O)=NC2 (stereo partly drawn) [Compound 129] |  | 0.4 nM |
| [2H]C([2H])([2H])NC(=O)c1nnc(NC(=O)[C@H]2CC23CC3)cc1Nc1nccc2c1S(C)(=O)=NC2 (stereo partly drawn) [Compound 130] |  | 59.9 nM |
| [2H]C([2H])([2H])NC(=O)c1nnc(NC(=O)C2CC2)cc1Nc1ncc(C(C)(C)O)cc1S(C)(=O)=O [Compound 131] | 9 nM |  |
| [2H]C([2H])([2H])NC(=O)c1nnc(NC(=O)[C@H]2CC23CC3)cc1Nc1ncc(OC(F)(F)F)cc1S(C)(=O)=O [Compound 132] | 6.5 nM |  |
| [2H]C([2H])([2H])NC(=O)c1nnc(NC(=O)[C@H]2CC23CC3)cc1Nc1ncc(N2CCC2)cc1S(C)(=O)=O [Compound 133] | 1.2 nM |  |
